The structures appear in SMILES notation.

In the assay the target is T1, Serine/threonine-protein kinase Chk1 (Homo sapiens, UniProt O14757).
T1 sequence (O14757 whole entry): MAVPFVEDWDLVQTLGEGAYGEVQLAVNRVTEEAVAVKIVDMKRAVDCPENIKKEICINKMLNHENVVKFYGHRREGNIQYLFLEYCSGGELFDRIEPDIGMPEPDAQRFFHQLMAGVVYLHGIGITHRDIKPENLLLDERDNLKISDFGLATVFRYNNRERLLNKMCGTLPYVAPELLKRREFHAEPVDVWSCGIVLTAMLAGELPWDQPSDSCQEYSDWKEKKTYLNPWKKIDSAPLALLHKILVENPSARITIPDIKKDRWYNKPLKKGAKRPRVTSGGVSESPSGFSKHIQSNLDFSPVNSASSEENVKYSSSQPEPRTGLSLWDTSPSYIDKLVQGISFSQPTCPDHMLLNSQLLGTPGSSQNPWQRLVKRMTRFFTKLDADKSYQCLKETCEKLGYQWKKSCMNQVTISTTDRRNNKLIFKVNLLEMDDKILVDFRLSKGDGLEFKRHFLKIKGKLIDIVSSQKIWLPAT
Description: Competitive inhibition of human CHK1 using ATP as substrate by DELFIA
Broadly, the IC50 is the concentration needed to halve the response being measured. The low end stands for higher potency, the high end for lower potency. Regarding `N#Cc1cccc(-c2c[nH]c3ncnc(N4CCOC(CN)C4)c23)c1` (configuration not stated), the IC50 turned out to be 3.2 µM. This counts as single-digit micromolar.

Turning to `NCCCNc1ncnc2[nH]c3cnccc3c12`, the IC50 was determined as 1.7 µM. Against the preceding compound, the IC50 is about 1.9-fold lower. The result for `NC1CCN(c2ncnc3[nH]c4cnccc4c23)CC1` reads 0.67 µM; that for `NCC1CCN(c2ncnc3[nH]c4cnccc4c23)CC1`, 0.29 µM. The compound `c1cncc(Nc2cc(NCC3CCNCC3)ncn2)c1` yielded an IC50 of 122 µM. The result for `NCC1CCN(c2cc(Nc3cnccn3)ncn2)CC1` reads 22 µM; that for `N#Cc1cnc(Nc2cc(NCC3CCOCC3)ncn2)cn1`, 20 µM.

The values above are taken from ChEMBL document CHEMBL1926634, “Structure-guided evolution of potent and selective CHK1 inhibitors through scaffold morphing” (J Med Chem, 2011).
